Structures can show the parent of a compound that is named as a salt. Where two headings read alike, the source gives them in different places.
Tests used:
[1] = molecular target: BIR3 domain of human XIAP (residues 252-350) (Homo sapiens (Human), UniProt P98170); experiment: XIAP in vitro competitive displacement binding assay (fluorescence polarization); conditions: for IC50: read-out: IC50 or PI Xiap: IC50
[2] = molecular target: BIR3 domain of human cIAP-1 (residues 267-363) (Homo sapiens (Human), UniProt Q13490); experiment: cIAP-1 in vitro competitive displacement binding assay (fluorescence polarization; Probe A AVPIK(5&6FAM)-amide or Probe B AbuRPFK(5&6FAM)-amide)
[3] = system: EVSA-T (human breast carcinoma); experiment: Anti-proliferative activity, Alamar Blue assay, EVSA-T; assay type: cell-based; conditions: Homo sapiens, EVSA-T; for EC50: read-out: EVSA-T prolif (EC50); for inhibition at 10 µM: read-out: EVSA-T prolif: % inhibition
[4] = Probe B AbuRPFK(5&6FAM)-amide, read-out: IC50 or PI cIAP1: IC50
[5] = read-out: IC50 or PI cIAP1: IC50
[6] = 1 h, read-out: IC50 or PI Xiap: PI
[7] = 3 h, read-out: IC50 or PI cIAP1: PI
[8] = 3 h, Probe B, @ 0.012 μM, read-out: IC50 or PI cIAP1: PI

Row | IC50 [1] [nM] | IC50 [2, 4] [nM] | EC50 ([3]; 72 hours, Alamar Blue) [nM] | SMILES | also measured
1 | 110 | 23 | 440 | COC[C@H]1CN[C@H](C)CN1CC(=O)N1CC(C)(C)c2cnc(C3=CCCCC3)cc21 [Example 106, 1-[6-(Cyclohex-1-en-1-yl)-3,3-dimethyl-1H,2H,3H-pyrrolo[3,2-c]pyridin-1-yl]-2-[(2R,5R)-2-(methoxymethyl)-5-methylpiperazin-1-yl]ethan-1-one, hydrochloride salt] | –
2 | – | – | – | CC[C@@H](C(=O)N1CC(C)(C)c2ccc(C#N)cc21)N1CCN[C@H](C)C1 [Example 266, 3,3-Dimethyl-1-[(2S)-2-[(3R)-3-methylpiperazin-1-yl]butanoyl]-2,3-dihydro-1H-indole-6-carbonitrile, hydrochloride salt] | inhibition at 150 µM [1, 6]: -6%; inhibition at 50 µM [2, 7]: 24%; inhibition at 10 µM ([3]; at 10 μM): -20%
3 | 1200 | 270 | 4800 | COC[C@H]1CN[C@H](C)CN1CC(=O)N1CC(C)(C)c2cnc(C3CCCC3)cc21 [Example 92, 1-{6-Cyclopentyl-3,3-dimethyl-1H,2H,3H-pyrrolo[3,2-c]pyridin-1-yl}-2-[(2R,5R)-2-(methoxymethyl)-5-methylpiperazin-1-yl]ethan-1-one, hydrochloride salt] | –
4 | 760 | 190 | 2500 | COC[C@H]1CN[C@H](C)CN1CC(=O)N1C[C@](C)(c2cc(C)no2)c2ccc(Cc3ccccc3)cc21 [Example 174, 1-[(3R)-6-Benzyl-3-methyl-3-(3-methyl-1,2-oxazol-5-yl)-2,3-dihydro-1H-indol-1-yl]-2-[(2R,5R)-2-(methoxymethyl)-5-methylpiperazin-1-yl]ethan-1-one hydrochloride] | IC50 [2]: < 1000 nM
5 | 1100 | 580 | 5200 | CC(=O)NC[C@H]1CN[C@H](C)CN1CC(=O)N1CC(C)(C)c2ccc(Cl)cc21 [Example 45, N-{(2R,5R)-1-[2-(6-Chloro-3,3-dimethyl-2,3-dihydro-indol-1-yl)-2-oxo-ethyl]-5-methyl-piperazin-2-ylmethyl}-acetamide hydrochloride salt] | –
6 | – | 23 | 880 | CCC(F)(F)c1cc2c(cn1)C(C)(C)CN2C(=O)CN1C[C@@H](C)NC[C@@H]1CN1CCCC1=O [Example 198, 1-{[(2R,5R)-1-{2-[6-(1,1-Difluoropropyl)-3,3-dimethyl-1H,2H,3H-pyrrolo[3,2-c]pyridin-1-yl]-2-oxoethyl}-5-methylpiperazin-2-yl]methyl}pyrrolidin-2-one] | inhibition at 0.04 µM ([1]; 1 h, @ 0.04 μM, read-out: IC50 or PI Xiap: PI): 69%; IC50 [2]: < 1000 nM
7 | 76 | – | 91 | CCCC(F)(F)c1cc2c(cn1)C(C)(C)CN2C(=O)CN1C[C@@H](C)NC[C@@H]1Cc1nccs1 [Example 233, 1-[6-(1,1-Difluorobutyl)-3,3-dimethyl-1H,2H,3H-pyrrolo[3,2-c]pyridin-1-yl]-2-[(2S,5R)-5-methyl-2-(1,3-thiazol-2-ylmethyl)piperazin-1-yl]ethan-1-one hydrochloride] | inhibition at […] [2, 8]: 62%
8 | 81 | – | 5.2 | C[C@@H]1CN(CC(=O)N2CC(C)(C)c3nnc(Cc4ccc(F)cc4F)cc32)[C@@H](CN2CCCC2=O)CN1 [Example 201, 1-{[(2R,5R)-1-(2-{3-[(2,4-Difluorophenyl)methyl]-7,7-dimethyl-5H,6H,7H-pyrrolo[3,2-c]pyridazin-5-yl}-2-oxoethyl)-5-methylpiperazin-2-yl]methyl}pyrrolidin-2-one hydrochloride] | inhibition at […] [2, 8]: 88%
9 | 75 | 35 | 600 | COC[C@H]1CN[C@H](C)CN1CC(=O)N1CC(C)(C)c2cnc(Oc3ccccc3Cl)cc21 [Example 110, 1-[6-(2-Chloro-phenoxy)-3,3-dimethyl-2,3-dihydro-pyrrolo[3,2-c]pyridin-1-yl]-2-((2R,5R)-2-methoxymethyl-5-methyl-piperazin-1-yl)-ethanone, hydrochloride salt] | –
10 | 55 | – | 4.6 | C[C@@H]1CN(CC(=O)N2CC(C)(C)c3cnc(Cc4ccc(F)cc4)cc32)[C@@H](CN2CCOCC2)CN1 [Example 237, 1-{6-[(4-Fluorophenyl)methyl]-3,3-dimethyl-1H,2H,3H-pyrrolo[3,2-c]pyridin-1-yl}-2-[(2R,5R)-5-methyl-2-(morpholin-4-ylmethyl)piperazin-1-yl]ethan-1-one hydrochloride] | inhibition at […] [2, 8]: 97%
11 | 46 | 22 | 630 | CC(C)C(F)(F)c1cc2c(cn1)C(C)(C)CN2C(=O)CN1C[C@@H](C)NC[C@@H]1CN1CCCC1=O [Example 211, 1-{[(2R,5R)-1-{2-[6-(1,1-Difluoro-2-methylpropyl)-3,3-dimethyl-1H,2H,3H-pyrrolo[3,2-c]pyridin-1-yl]-2-oxoethyl}-5-methylpiperazin-2-yl]methyl}pyrrolidin-2-one hydrochloride] | IC50 [2]: < 1000 nM

Row | SMILES | IC50 [1] [nM] | IC50 [2, 4] [nM] | EC50 ([3]; 72 hours, Alamar Blue) [nM] | also measured
12 | CNS(=O)(=O)c1ccc2c(c1)N(C(=O)CN1C[C@@H](C)NC[C@@H]1COC)CC2(C)C [Example 61, 1-[2-((2R,5R)-2-Methoxymethyl-5-methyl-piperazin-1-yl)-acetyl]-3,3-dimethyl-2,3-dihydro-1H-indole-6-sulfonic acid methylamide dihydrochloride salt] | 220 | – | – | IC50 [2, 5]: 1600 nM; inhibition at 10 µM [3]: 0%
13 | C[C@@H]1CN(CC(=O)N2CC(C)(C)c3cnc(C(F)(F)c4ccccc4)cc32)[C@@H](C(=O)N(C)C)CN1 [Example 158, (2R,5R)-1-(2-{6-[Difluoro(phenyl)methyl]-3,3-dimethyl-1H,2H,3H-pyrrolo[3,2-c]pyridin-1-yl}-2-oxoethyl)-N,N,5-trimethylpiperazine-2-carboxamide dihydrochloride] | 49 | – | – | inhibition at 0.01 µM [2, 7]: 51%; EC50 ([3]; 72 h): 300 nM
14 | COC[C@H]1CN[C@H](C)CN1CC(=O)N1CC(C)(C)c2cnc(-c3ccc(C)s3)cc21 [Example 148, 1-[3,3-Dimethyl-6-(5-methylthiophen-2-yl)-1H,2H,3H-pyrrolo[3,2-c]pyridin-1-yl]-2-[(2R,5R)-2-(methoxymethyl)-5-methylpiperazin-1-yl]ethan-1-one dihydrochloride] | 360 | – | – | IC50 [2, 5]: 45 nM; EC50 ([3]; 72 h): 2000 nM
15 | CCC(F)(F)c1cnc2c(c1)N(C(=O)CN1C[C@@H](C)NC[C@@H]1CN1CCOC[C@H]1COC)CC2(C)C [Example 256, 1-[6-(1,1-Difluoropropyl)-3,3-dimethyl-1H,2H,3H-pyrrolo[3,2-b]pyridin-1-yl]-2-[(2R,5R)-2-{[(3R)-3-(methoxymethyl)morpholin-4-yl]methyl}-5-methylpiperazin-1-yl]ethan-1-one dihydrochloride] | 53 | – | – | IC50 [2]: < 1000 nM; IC50 [2, 5]: 24 nM; EC50 ([3]; 72 h): 78 nM
16 | COC[C@H]1CN[C@H](C)CN1CC(=O)N1CC(C)(C)c2cnc(-c3ccoc3)cc21 [Example 145, 1-[6-(Furan-3-yl)-3,3-dimethyl-1H,2H,3H-pyrrolo[3,2-c]pyridin-1-yl]-2-[(2R,5R)-2-(methoxymethyl)-5-methylpiperazin-1-yl]ethan-1-one dihydrochloride] | 1000 | – | – | IC50 [2, 5]: 180 nM; EC50 ([3]; 72 h): 9800 nM
17 | Cc1cnn(C[C@H]2CN[C@H](C)CN2CC(=O)N2CC(C)(C)c3cnc(C(F)(F)c4ccccc4)cc32)c1 [Example 159, 1-{6-[Difluoro(phenyl)methyl]-3,3-dimethyl-1H,2H,3H-pyrrolo[3,2-c]pyridin-1-yl}-2-[(2R,5R)-5-methyl-2-[(4-methyl-1H-pyrazol-1-yl)methyl]piperazin-1-yl]ethan-1-one dihydrochloride] | – | – | 120 | inhibition at 0.04 µM [1, 6]: 56%; inhibition at […] [2, 7]: 72%
18 | CC[C@@H]1COCCN1C[C@H]1CN[C@H](C)CN1CC(=O)N1CC(C)(C)c2ncc(Cc3ccc(F)cc3)cc21 [Example 254, 2-[(2R,5R)-2-{[(3R)-3-Ethylmorpholin-4-yl]methyl}-5-methylpiperazin-1-yl]-1-{6-[(4-fluorophenyl)methyl]-3,3-dimethyl-1H,2H,3H-pyrrolo[3,2-b]pyridin-1-yl}ethan-1-one dihydrochloride] | – | – | 1.9 | inhibition at 0.04 µM [1, 6]: 51%; inhibition at […] [2, 7]: 98%
19 | COC[C@H]1CN[C@H](C)CN1CC(=O)N1CC(C)(C)c2cnc(CC3CCCCC3)cc21 [Example 79, 1-[6-(Cyclohexylmethyl)-3,3-dimethyl-1H,2H,3H-pyrrolo[3,2-c]pyridin-1-yl]-2-[(2R,5R)-2-(methoxymethyl)-5-methylpiperazin-1-yl]ethan-1-one] | 1000 | – | 490 | IC50 [2, 5]: 25 nM
20 | C[C@@H]1CN(CC(=O)N2CC(C)(C)c3ncc(Cc4ccccc4F)cc32)[C@@H](CN2CCOC[C@H]2C)CN1 [Example 261, 1-[6-(2-Fluoro-benzyl)-3,3-dimethyl-2,3-dihydro-pyrrolo[3,2-b]pyridin-1-yl]-2-[(2R,5R)-5-methyl-2-((R)-3-methyl-morpholin-4-ylmethyl)-piperazin-1-yl]-ethanone dihydrochloride] | – | – | 2.1 | inhibition at 0.04 µM [1, 6]: 55%; inhibition at […] [2, 7]: 96%
21 | C[C@@H]1CN(CC(=O)N2CC(C)(C)c3cnc(Cc4ccc(F)cc4F)cc32)[C@@H](C(=O)N(C)C)CN1 [Example 164, (2R,5R)-1-(2-{6-[(2,4-Difluorophenyl)methyl]-3,3-dimethyl-1H,2H,3H-pyrrolo[3,2-c]pyridin-1-yl}-2-oxoethyl)-N,N,5-trimethylpiperazine-2-carboxamide dihydrochloride] | 120 | – | – | inhibition at […] [2, 7]: 86%; EC50 ([3]; 72 h): 45 nM

Source: patent publication US9018214B2, “Bicyclic heterocycle compounds and their uses in therapy” (Astex Therapeutics Limited, priority 2011, dated 2015)
